molecular target: T1, recombinant guanylate cyclase reporter cell line (Rattus norvegicus, UniProt P19686+P20595); assay: Action on recombinant guanylate cyclase reporter cell line; type: cell-based; settings: in some cases mean values from individual determinations
T1 construct: expressed in transfected cells; host or cells: recombinant reporter cell line
T1 sequence (P19686 1-690): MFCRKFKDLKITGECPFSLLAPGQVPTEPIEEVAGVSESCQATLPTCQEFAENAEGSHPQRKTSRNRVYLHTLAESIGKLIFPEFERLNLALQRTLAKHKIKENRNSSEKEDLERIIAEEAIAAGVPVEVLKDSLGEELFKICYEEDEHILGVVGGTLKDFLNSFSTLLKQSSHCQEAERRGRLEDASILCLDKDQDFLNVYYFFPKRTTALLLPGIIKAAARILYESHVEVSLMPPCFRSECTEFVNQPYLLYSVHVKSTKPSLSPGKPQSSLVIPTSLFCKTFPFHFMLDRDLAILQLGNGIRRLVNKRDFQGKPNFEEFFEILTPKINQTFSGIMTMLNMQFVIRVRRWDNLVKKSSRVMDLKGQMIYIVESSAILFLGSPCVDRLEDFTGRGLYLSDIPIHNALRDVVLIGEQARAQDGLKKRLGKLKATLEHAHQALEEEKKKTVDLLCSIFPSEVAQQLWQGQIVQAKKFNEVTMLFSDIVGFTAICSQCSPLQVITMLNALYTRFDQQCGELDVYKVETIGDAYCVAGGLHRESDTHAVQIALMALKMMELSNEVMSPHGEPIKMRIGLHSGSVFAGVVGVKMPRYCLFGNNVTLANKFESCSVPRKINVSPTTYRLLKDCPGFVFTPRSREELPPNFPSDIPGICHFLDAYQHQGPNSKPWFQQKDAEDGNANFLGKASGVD
T1 sequence (P20595 1-619): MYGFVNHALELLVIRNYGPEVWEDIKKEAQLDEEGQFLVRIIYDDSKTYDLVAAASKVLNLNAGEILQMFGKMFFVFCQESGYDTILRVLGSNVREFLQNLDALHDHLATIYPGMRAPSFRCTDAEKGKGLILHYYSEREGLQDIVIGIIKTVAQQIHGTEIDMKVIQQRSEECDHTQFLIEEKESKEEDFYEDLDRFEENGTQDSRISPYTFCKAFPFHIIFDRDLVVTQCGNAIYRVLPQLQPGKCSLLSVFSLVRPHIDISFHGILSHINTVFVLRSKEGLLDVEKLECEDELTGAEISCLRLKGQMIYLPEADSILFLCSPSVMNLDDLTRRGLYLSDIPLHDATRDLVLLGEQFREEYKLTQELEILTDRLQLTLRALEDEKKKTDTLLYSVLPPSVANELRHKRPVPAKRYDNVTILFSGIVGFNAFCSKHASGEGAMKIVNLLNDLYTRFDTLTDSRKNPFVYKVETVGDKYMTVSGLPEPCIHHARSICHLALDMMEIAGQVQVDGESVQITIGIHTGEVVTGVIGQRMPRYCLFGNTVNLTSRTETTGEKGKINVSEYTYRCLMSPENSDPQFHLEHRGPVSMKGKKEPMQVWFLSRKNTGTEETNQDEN
In short: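 Read-out: MEC (minimal effective concentration) in cells. Reporter line carries recombinant sGC. Some values are averages of single runs.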

| MEC (minimal effective concentration) | Structure (SMILES) |
| --- | --- |
| 3.00 µM | Cc1cc(OCc2c(F)cccc2F)c2nc(C)c(C(=O)NC3CCC3N)n2c1 (single isomer, unassigned; enantiomer a) [Example 328, ent-N-(2-aminocyclobutyl)-8-[(2,6-difluorobenzyl)oxy]-2,6-dimethylimidazo[1,2-a]pyridine-3-carboxamide (Enantiomer A)] |
| 1.00 µM | Cc1cc(OCc2c(F)cccc2F)c2nc(C)c(C(=O)NC3CCC3(C)N)n2c1 (single isomer, unassigned; enantiomer a) [Example 332, ent-N-[2-amino-2-methylcyclobutyl]-8-[(2,6-difluorobenzyl)oxy]-2,6-dimethylimidazo[1,2-a]pyridine-3-carboxamide (Enantiomer A)] |
| 0.30 µM | Cc1cc(OCc2c(F)cccc2F)c2nc(C)c(C(=O)NC3(C)CCC3(C)N)n2c1 (single isomer, unassigned; enantiomer a) [Example 336, ent-N-[(2-amino-1,2-dimethylcyclobutyl]-8-[(2,6-difluorobenzyl)oxy]-2,6-dimethylimidazo[1,2-a]pyridine-3-carboxamide (Enantiomer A)] |
| 0.03 µM | CCC(C)(N)CNC(=O)c1c(C)nc2c(OCc3c(F)cccc3F)cc(C)cn12.Cl (single isomer, unassigned; enantiomer a) [Example 357, ent-N-(2-amino-2-methylbutyl)-8-[(2,6-difluorobenzyl)oxy]-2,6-dimethylimidazo[1,2-a]pyridine-3-carboxamide hydrochloride (Enantiomer A)] |
| 1.00 µM | Cc1cc(OCc2c(F)cccc2F)c2nc(C)c(C(=O)NCC(N)C#N)n2c1 (single isomer, unassigned; enantiomer a) [Example 401, ent-N-(2-amino-2-cyanoethyl)-8-[(2,6-difluorobenzyl)oxy]-2,6-dimethylimidazo[1,2-a]pyridine-3-carboxamide (Enantiomer A)] |
| 0.30 µM | Cc1nc2c(OCc3c(F)cccc3F)cccn2c1C(=O)NC(CN)CC(F)(F)F (single isomer, unassigned; enantiomer b) [Example 3, ent-N-(1-Amino-4,4,4-trifluorobutan-2-yl)-8-[(2,6-difluorobenzyl)oxy]-2-methylimidazo[1,2-a]-pyridine-3-carboxamide (Enantiomer B)] |
| 0.23 µM | Cc1nc2c(OCc3c(F)cccc3F)cccn2c1C(=O)NC(CN)CCCC(F)(F)F (single isomer, unassigned; enantiomer b) [Example 6, ent-N-(1-Amino-6,6,6-trifluorohexan-2-yl)-8-[(2,6-difluorobenzyl)oxy]-2-methylimidazo[1,2-a]-pyridine-3-carboxamide (Enantiomer B)] |
| 0.53 µM | Cc1nc2c(OCc3c(F)cccc3F)cccn2c1C(=O)NC(CN)c1ccc(Cl)cc1 (single isomer, unassigned; enantiomer b) [Example 15, ent-N-[2-Amino-1-(4-chlorophenyl)ethyl]-8-[(2,6-difluorobenzyl)oxy]-2-methylimidazo[1,2-a]-pyridine-3-carboxamide (Enantiomer B)] |
| 0.55 µM | Cc1nc2c(OCc3c(F)cccc3F)cccn2c1C(=O)NC(CN)c1ccccc1 (single isomer, unassigned; enantiomer b) [Example 18, ent-N-(2-Amino-1-phenylethyl)-8-[(2,6-difluorobenzyl)oxy]-2-methylimidazo[1,2-a]pyridine-3-carboxamide (Enantiomer B)] |
| 0.30 µM | CCCC(C)(N)CNC(=O)c1c(C)nc2c(OCc3c(F)cccc3F)cc(Cl)cn12 (single isomer, unassigned; enantiomer b) [Example 246, ent-N-(2-Amino-2-methylpentyl)-6-chloro-8-[(2,6-difluorobenzyl)oxy]-2-methylimidazo[1,2-a]-pyridine-3-carboxamide (Enantiomer B)] |
| 1.00 µM | COCC(N)CNC(=O)c1c(C)nc2c(OCc3c(F)cccc3F)cccn12 (single isomer, unassigned; enantiomer b) [Example 248, ent-N-(2-Amino-3-methoxypropyl)-8-[(2,6-difluorobenzyl)oxy]-2-methylimidazo[1,2-a]pyridine-3-carboxamide (Enantiomer B)] |
| 0.10 µM | Cc1nc2c(OCc3c(F)cccc3F)cccn2c1C(=O)NCC(C)(N)CCOCc1ccccc1 (single isomer, unassigned; enantiomer b) [Example 267, ent-N-[2-Amino-4-(benzyloxy)-2-methylbutyl]-8-[(2,6-difluorobenzyl)oxy]-2-methylimidazo[1,2-a]pyridine-3-carboxamide (Enantiomer B)] |
| 0.65 µM | Cc1cc(OCc2c(F)cccc2F)c2nc(C)c(C(=O)NCC(C)(N)CO)n2c1 (single isomer, unassigned; enantiomer b) [Example 269, ent-N-(2-Amino-3-hydroxy-2-methylpropyl)-8-[(2,6-difluorobenzyl)oxy]-2,6-dimethylimidazo-[1,2-a]pyridine-3-carboxamide (Enantiomer B)] |
| 0.3 µM | CCCC(C)(N)CNC(=O)c1c(C)nc2c(OCc3c(F)cccc3F)cc(OC)cn12 (single isomer, unassigned; enantiomer b) [Example 278, ent-N-(2-amino-2-methylpentyl)-8-[(2,6-difluorobenzyl)oxy]-6-methoxy-2-methylimidazo[1,2-a]pyridine-3-carboxamide (Enantiomer B)] |
| 0.65 µM | CCCC(C)(N)CNC(=O)c1c(C)nc2c(OCc3c(F)cccc3F)cc(N3CCOCC3)cn12 (single isomer, unassigned; enantiomer b) [Example 280, ent-N-(2-amino-2-methylpentyl)-8-[(2,6-difluorobenzyl)oxy]-2-methyl-6-(morpholin-4-yl)imidazo[1,2-a]pyridine-3-carboxamide (Enantiomer B)] |
| 0.3 µM | CCCC(C)(N)CNC(=O)c1c(C)nc2c(OCc3c(F)cccc3F)cc(C(F)F)cn12 (single isomer, unassigned; enantiomer b) [Example 290, ent-N-(2-amino-2-methylpentyl)-8-[(2,6-difluorobenzyl)oxy]-6-(difluoromethyl)-2-methyl-imidazo[1,2-a]pyridine-3-carboxamide (Enantiomer B)] |
| 0.30 µM | Cc1cc(OCc2c(F)cccc2F)c2nc(C)c(C(=O)NC3CCC3N)n2c1 (single isomer, unassigned; enantiomer b) [Example 329, ent-N-(2-aminocyclobutyl)-8-[(2,6-difluorobenzyl)oxy]-2,6-dimethylimidazo[1,2-a]pyridine-3-carboxamide (Enantiomer B)] |
| 1.00 µM | Cc1cc(OCc2c(F)cccc2F)c2nc(C)c(C(=O)NC3CCC3(C)N)n2c1 (single isomer, unassigned; enantiomer b) [Example 333, ent-N-[2-amino-2-methylcyclobutyl]-8-[(2,6-difluorobenzyl)oxy]-2,6-dimethylimidazo[1,2-a]pyridine-3-carboxamide (Enantiomer B)] |
| 0.55 µM | Cc1cc(OCc2c(F)cccc2F)c2nc(C)c(C(=O)NC3(C)CCC3(C)N)n2c1 (single isomer, unassigned; enantiomer b) [Example 337, ent-N-[(2-amino-1,2-dimethylcyclobutyl]-8-[(2,6-difluorobenzyl)oxy]-2,6-dimethylimidazo[1,2-a]pyridine-3-carboxamide (Enantiomer B)] |

| Structure (SMILES) | MEC (minimal effective concentration) |
| --- | --- |
| Cc1cc(OC(C)c2c(F)cccc2F)c2nc(C)c(C(=O)NCC(C)(C)N)n2c1 (single isomer, unassigned; enantiomer b) [Example 256, ent-N-(2-Amino-2-methylpropyl)-8-[1-(2,6-difluorophenyl)ethoxy]-2,6-dimethylimidazo[1,2-a]-pyridine-3-carboxamide (Enantiomer B)] | 3.00 µM |
